Structures can show the parent of a compound that is named as a salt.
Key:
[1] = cited from earlier work
[2] = FIG. 6
Source text: FIG. 6 illustrates blood plasma concentrations at various times achieved through various means of delivery. This figure illustrates the time necessary to achieve a particular blood plasma concentration.

[3] = in vivo; cited from earlier work
[4] = in vivo; cited from earlier work; remark: listed apart in the source

colonic absorption [2] | Compound | solubility in alcohol ([1]; alcohol) | solubility in hydrocarbon solvents ([1]; hydrocarbon solvents) | solubility in isopropanol ([1]; isopropanol) | solubility in water ([1]; water) | half-life [3] | reported side effects [4]
 | CN(C)CCC=C1c2ccccc2C=Cc2ccccc21 [Cyclobenzaprine hydrochloride, cyclobenzaprine hydrochloride] | freely soluble | insoluble | sparingly soluble | freely soluble |  | 
colonic absorption | CN(C)CCC=C1c2ccccc2C=Cc2ccccc21 [cyclobenzaprine] |  |  |  |  | 24 to 72 h | sedation and dry mouth
